According to patent publication US20070212339A1, “Use Of At Least One Effector Of Glutathione Metabolism Together With Alpha-Lipoic Acid For The Treatment Of Chronically Obstructive Lung Diseases” (ESPARMA GMBH, priority 2003, published 2007):

Experiments:
[1] = test system: primary alveolar macrophages of COPD patients; experiment: Cellular thiol status (CMFDA) of primary alveolar macrophages of COPD patients; format: cell-based, human; conditions: for Thiols, intracellular (CMFDA)[%]: RPMI1640
Procedure: The intercellular thiol content at the individual cell level was determined using 5-chloromethylfluorescein diacetate (CMFDA) in flow cytofluorimetry [Cytometry 1994; 15:349-358, Cytometry 1997; 29:76-82]. CMFDA which is primarily non-fluorogenic is here passively absorbed by the cell. Via the chloromethyl residue there is binding to cytoplasmatic thiol groups. After the acetate residues have been split off by unspecific cellular esterases, this complex which is now cell membrane-impermeable becomes fluorogenic at an excitation wavelength of λex=490 nm with an emission wavelength of λem=520 nm. The mean fluorescence intensity of the sample (10,000 cells) is directly proportional to the concentration of the intracellular thiol groups. Alveolar macrophages were isolated from the bronchoalveolar lavage fluid of COPD patients, taken up in cell culture medium and incubated in a gassing incubator at 37° C., a relative air humidity of 98% and a relative air-CO2 content of 7.5%. In order to check the influence of the combinations used according to the invention on the thiol status of the […] macrophages, in each case one fraction was treated with α-lipoic acid, the effector of glutathione metabolism ambroxol or with the combination of α-lipoic acid/ambroxol, whilst another fraction was used in each case as an untreated control. Untreated alveolar macrophages from healthy, non-COPD patients served as the normal comparison. The cellular thiol status was determined by means of the measuring method described under 1. The effect of the combination of α-lipoic acid and ambroxol in time kinetics over 96 hours in relation to healthy cells is shown in Table 5. In a test assembly identical to that of Example 3, alveolar macrophages from COPD patients were in each case treated with α-lipoic acid, the effector silibinin or with the combination of α-lipoic acid/silibinin, whilst another fraction was again used in each case as an untreated control. Untreated alveolar macrophages from healthy, non-COPD patients served here, too, as the normal comparison. The cellular thiol status was determined by means of the measuring method described under 1. The effect of the combination of α-lipoic acid and silibinin in time kinetics over 96 hours in relation to healthy cells is shown in Table 6.

[2] = test system: primary alveolar macrophages of COPD patients; experiment: Phagocytosis rate of primary alveolar macrophages of COPD patients (cytofluorimetric test with opsonized fluorochrome-marked bacteria); format: cell-based, human; conditions: for Phagoburst (mfi) [%]: RPMI1640; for phagocytosis rate: monosubstances, by comparison with the untreated control
Procedure: In a similar procedure to the one described in Example 3, alveolar macrophages were isolated and cultivated ex vivo. The phagocytosis efficiency was determined by a cytofluorimetric test at the single-cell level. The macrophages were co-cultivated with opsonized and fluorochrome-marked bacteria. The amount of bacteria absorbed in a defined period of time was assessed quantitatively via the fluorescence intensity in the macrophages and counted as the measurement for their capacity for phagocytosis. The influence of the combinations used according to the invention on the capacity of the […] macrophages for phagocytosis after a treatment period of up to 96 hours is shown in Table 7.

[3] = test system: alveolar macrophage cell line CRL 21-92 (NR8383); experiment: Intracellular thiol content (CMFDA, flow cytofluorimetry) of artificially thiol-depleted alveolar macrophage cell line; format: cell-based; conditions: αLA 10.0 μg/ml alone, TDM
Procedure: (§1) The established normal alveolar macrophage cell line CRL 21-92 (NR8383 [AgC11x3A; NR8383.1]) was used. The cells were taken up in special cell culture media and incubated in a gassing incubator at 37° C., a relative air humidity of 98% and a relative air-CO2 content of 5%. In order to check the influence of the combinations used according to the invention on the thiol status of thiol-deficient alveolar macrophages, these were artificially thiol-depleted. This came about by cultivation in thiol-deficient media (TDM) according to tested methods [Free Radic Biol Med 2000; 29:1160-1165]. Comparative cultures using complete media (RPMT 1640) were used for defining the best possible normal value under culture conditions. The intercellular thiol content at the individual cell level was determined using 5-chloromethylfluorescein diacetate (CMFDA) in flow cytofluorimetry [Cytometry 1994; 15:349-358, Cytometry 1997; 29:76-82]. CMFDA which is primarily non-fluorogenic is here passively absorbed by the cell. Via the chloromethyl residue there is binding to cytoplasmatic thiol groups. After the acetate residues have been split off by unspecific cellular esterases, this complex which is now cell membrane-impermeable becomes fluorogenic at an excitation wavelength of λex=490 nm with an emission wavelength of λem=520 nm. The mean fluorescence intensity of the sample (10,000 cells) is directly proportional to the concentration of the intracellular thiol groups. The expression of membrane-bound thiol groups was also determined by means of flow cytofluorimetry. Chloromethyl tetramethyl rhodamine (CMTMR) was used as the thiol conjugate under conditions of a blocked membrane potential and an inhibited diffusion capacity of the cells, [Exp Hematol 1997; 25(7): 601-607]. The fluorescence intensity of the bound fluorochrome molecules on the cell membrane is here again proportional to the quantity of thiol groups on the cell surface. Immortalised alveolar macrophages were artificially thiol-depleted in the above-described test assembly. The influence of the substances used according to the invention was checked over a period of 96 hours by measuring the intracellular thiol content and the membrane expression of thiols. Immortalised alveolar macrophages were artificially thiol-depleted in the test assembly described in Example 1. The influence of the substances used according to the invention was checked over a period of 96 hours by measuring the intracellular thiol content and the membrane expression of thiols.

[4] = test system: alveolar macrophage cell line CRL 21-92 (NR8383); experiment: Membrane-bound thiol expression (CMTMR, flow cytofluorimetry) of artificially thiol-depleted alveolar macrophage cell line; format: cell-based; conditions: αLA 10.0 μg/ml alone, TDM
Procedure: as §1, with “conditions.” for “conditions. The intercellular thiol content at the individual cell level was determined using 5-chloromethylfluorescein diacetate (CMFDA) in flow cytofluorimetry [Cytometry 1994; 15:349-358, Cytometry 1997; 29:76-82]. CMFDA which is primarily non-fluorogenic is here passively absorbed by the cell. Via the chloromethyl residue there is binding to cytoplasmatic thiol groups. After the acetate residues have been split off by unspecific cellular esterases, this complex which is now cell membrane-impermeable becomes fluorogenic at an excitation wavelength of λex=490 nm with an emission wavelength of λem=520 nm. The mean fluorescence intensity of the sample (10,000 cells) is directly proportional to the concentration of the intracellular thiol groups.”

Nc1c(Br)cc(Br)cc1CN[C@H]1CC[C@H](O)CC1 [Ambroxol, ambroxol]
Thiols, intracellular (CMFDA)[%] ([1]; 24 h, Ambroxol [10.0 μ/ml] alone): 67.4 ± 16.4%
Thiols, intracellular (CMFDA)[%] ([1]; 48 h, Ambroxol [10.0 μ/ml] alone): 61.8 ± 11.5%
Thiols, intracellular (CMFDA)[%] ([1]; 72 h, Ambroxol [10.0 μ/ml] alone): 61.6 ± 20.8%
Thiols, intracellular (CMFDA)[%] ([1]; 96 h, Ambroxol [10.0 μ/ml] alone): 67.1 ± 8.4%
cellular thiol expression ([1]; Example 3, monosubstances): only a marginal rise
Phagoburst (mfi) [%] ([2]; 24 h, Ambroxol 10 μM alone): 53.3 ± 10.9%
Phagoburst (mfi) [%] ([2]; 48 h, Ambroxol 10 μM alone): 59.2 ± 12.4%
Phagoburst (mfi) [%] ([2]; 72 h, Ambroxol 10 μM alone): 55.2 ± 19.2%
Phagoburst (mfi) [%] ([2]; 96 h, Ambroxol 10 μM alone): 61.9 ± 22.1%
phagocytosis rate [2]: had not altered

COc1cc(C2Oc3cc([C@H]4Oc5cc(O)cc(O)c5C(=O)[C@@H]4O)ccc3OC2CO)ccc1O (stereo partly shown) [Silibinin, silibinin]
Thiols, intracellular (CMFDA)[%] ([1]; 24 h, Silibinin 70 μg/ml alone): 56.1 ± 12.4%
Thiols, intracellular (CMFDA)[%] ([1]; 48 h, Silibinin 70 μg/ml alone): 59.0 ± 56.8%
Thiols, intracellular (CMFDA)[%] ([1]; 72 h, Silibinin 70 μg/ml alone): 44.7 ± 14.0%
Thiols, intracellular (CMFDA)[%] ([1]; 96 h, Silibinin 70 μg/ml alone): 49.4 ± 14.5%
Phagoburst (mfi) [%] ([2]; 24 h, Silibinin 70.0 μg/ml alone): 55.1 ± 12.2 %
Phagoburst (mfi) [%] ([2]; 48 h, Silibinin 70.0 μg/ml alone): 57.6 ± 8.5%
Phagoburst (mfi) [%] ([2]; 72 h, Silibinin 70.0 μg/ml alone): 54.2 ± 13.8%
Phagoburst (mfi) [%] ([2]; 96 h, Silibinin 70.0 μg/ml alone): 59.9 ± 21.2%

O=C(O)CCCCC1CCSS1 (stereo not drawn) [αLA, α-lipoic acid]
Thiols, intracellular (CMFDA)[%] ([3]; Table 1, 24 h): 70.2 ± 8.4%
Thiols, intracellular (CMFDA)[%] ([3]; Table 1, 48 h): 58.9 ± 10.4%
Thiols, intracellular (CMFDA)[%] ([3]; Table 1, 72 h): 78.1 ± 30.0%
Thiols, intracellular (CMFDA)[%] ([3]; Table 1, 96 h): 72.5 ± 19.1%
Thiols, intracellular (CMFDA)[%] ([3]; Table 3, 24 h): 69.2 ± 28.2%
Thiols, intracellular (CMFDA)[%] ([3]; Table 3, 48 h): 91.1 ± 16.6%
Thiols, intracellular (CMFDA)[%] ([3]; Table 3, 72 h): 88.6 ± 26.2%
Thiols, intracellular (CMFDA)[%] ([3]; Table 3, 96 h): 114.8 ± 33.2%
Thiols, in membrane (CMTMR)[%] ([4]; Table 2, 24 h): 91.1 ± 66.3%
Thiols, in membrane (CMTMR)[%] ([4]; Table 2, 48 h): 165.5 ± 36.3%
Thiols, in membrane (CMTMR)[%] ([4]; Table 2, 72 h): 82.3 ± 42.1%
Thiols, in membrane (CMTMR)[%] ([4]; Table 2, 96 h): 118.9 ± 76.6%
Thiols, in membrane (CMTMR)[%] ([4]; Table 4, 24 h): 108.8 ± 38.2%
Thiols, in membrane (CMTMR)[%] ([4]; Table 4, 48 h): 126.2 ± 68.6%
Thiols, in membrane (CMTMR)[%] ([4]; Table 4, 72 h): 90.7 ± 28.1%
Thiols, in membrane (CMTMR)[%] ([4]; Table 4, 96 h): 107.3 ± 57.4%
cellular thiol expression ([1]; Example 3, monosubstances): no effect
cellular thiol expression ([1]; Example 4, monosubstances): no modulation
Thiols, intracellular (CMFDA)[%] ([1]; Table 5, 24 h, αLA 10.0 μg/ml alone): 60.3 ± 21.0%
Thiols, intracellular (CMFDA)[%] ([1]; Table 5, 48 h, αLA 10.0 μg/ml alone): 58.0 ± 17.0%
Thiols, intracellular (CMFDA)[%] ([1]; Table 5, 72 h, αLA 10.0 μg/ml alone): 46.2 ± 19.8%
Thiols, intracellular (CMFDA)[%] ([1]; Table 5, 96 h, αLA 10.0 μg/ml alone): 62.4 ± 6.3%
Thiols, intracellular (CMFDA)[%] ([1]; Table 6, 24 h, αLA 10.0 μg/ml alone): 60.3 ± 21.0%
Thiols, intracellular (CMFDA)[%] ([1]; Table 6, 48 h, αLA 10.0 μg/ml alone): 58.0 ± 68.6%
Thiols, intracellular (CMFDA)[%] ([1]; Table 6, 72 h, αLA 10.0 μg/ml alone): 46.2 ± 19.8%
Thiols, intracellular (CMFDA)[%] ([1]; Table 6, 96 h, αLA 10.0 μg/ml alone): 62.4 ± 6.3%
Phagoburst (mfi) [%] ([2]; 24 h, αLA 10.0 μg/ml alone): 59.0 ± 11.7%
Phagoburst (mfi) [%] ([2]; 48 h, αLA 10.0 μg/ml alone): 60.2 ± 12.4%
Phagoburst (mfi) [%] ([2]; 72 h, αLA 10.0 μg/ml alone): 50.7 ± 9.0%
Phagoburst (mfi) [%] ([2]; 96 h, αLA 10.0 μg/ml alone): 64.9 ± 14.3%
phagocytosis rate [2]: had not altered
